Experimental data: patent publication EP3074389B1, “QUINOLINE DERIVATIVES AS BROMODOMAIN INHIBITORS” (Gilead Sciences, Inc., priority 2013, dated 2015)

Key:
BRD4 domain 2 = BRD4 domain 2 (Homo sapiens, UniProt O60885); assay: Kd determination of inhibitors binding to BRD4 domain 2 (Epic label-free platform); conditions: direct binding to immobilized BRD4 domain 2; tripling dilution series from 20µM; about 1hr equilibrium; rounded to whole number
Procedure: (§1) Kd Determination of Inhibitors Binding to BRD4 Domain 1 and Domain 2
(§2) The binding of small molecule inhibitors to either BRD4 domain 1 or domain 2 were determined using the Epic, high-throughput, label-free platform (Corning, Lowell, MA). The Epic instrument incorporates an evanescent waveguide sensor within each well of its proprietary 384-well microplates. Direct binding of inhibitors to BRD4 immobilized onto the microplate well surface can be detected by exposing the waveguide to a broadband light source. The resulting resonant wavelength shift (measured in picometers (pm)) is proportional to the mass bound to the surface. Epic biochemical plates (Corning, Lowell, MA) were activated by adding 15 µL/well of 200 mM EDC and 50 mM Sulfo-NHS (Pierce Thermo Scientific, Rockford, IL) and incubated for 60 minutes at room temperature. Plates were washed three times with MilliQ water and dried by centrifugation (1 minute at 400 rpm). BRD4 immobilization was accomplished by resuspending the protein at a concentration of 150 µg/mL in 20 mM HEPES (pH 7) and adding 10 µL/well. […] Compound/inhibitor binding was determined by calculating difference between the baseline (first read) and second read. The resulting binding response was fitted to a single site binding isotherm in order to determine an equilibrium dissociation constant (Kd).

BRD4 domain 1 = BRD4 domain 1 (Homo sapiens, UniProt O60885); assay: Kd determination of inhibitors binding to BRD4 domain 1 (Epic label-free platform); conditions: direct binding to immobilized BRD4 domain 1; tripling dilution series from 20µM; about 1hr equilibrium; rounded to whole number; read-out: Epic Kd BRD41
Procedure: as §1, §2

| Structure (SMILES) | Kd (BRD4 domain 2) [nM] | Kd (BRD4 domain 1) [nM] |
| --- | --- | --- |
| CC(=O)NCCNC(=O)[C@@H]1CCC[C@H]1NS(=O)(=O)c1cc(-c2c(C)noc2C)cc2ncccc12 [Compound 73, (1R,2R)-N-(2-acetamidoethyl)-2-(7-(3,5-dimethylisoxazol-4-yl)quinoline-5-sulfonamido)cyclopen tanecarboxamide] | 16700 | > 20000 |
| Cc1noc(C)c1-c1cc(S(=O)(=O)NCCN)c2cccnc2c1 [Compound 74, N-(2-aminoethyl)-7-(3,5-dimethylisoxazol-4-yl)quinoline-5-sulfonamide] | 17500 | 14100 |
| Cc1noc(C)c1-c1cc(S(=O)(=O)N[C@@H]2CCC[C@H]2C(=O)N2CCN(C)CC2)c2cccnc2c1 [Compound 71, 7-(3,5-dimethylisoxazol-4-yl)-N-((1R,2R)-2-(4-methylpiperazine-1-carbonyl)cyclopentyl) quinoline-5-sulfonamide] | 4150 | 4890 |
| Cc1noc(C)c1-c1cc(S(=O)(=O)NC2CC2)c2cccnc2c1 [Compound 8, N-cyclopropyl-7-(3,5-dimethylisoxazol-4-yl)quinoline-5-sulfonamide] | 2250 | 3950 |
| Cc1noc(C)c1-c1cc(S(=O)(=O)NCC2CC(F)(F)C2)c2cccnc2c1 [Compound 11, N-((3,3-difluorocyclobutyl)methyl)-7-(3,5-dimethylisoxazol-4-yl)quinoline-5-sulfonamide] | > 20000 | 12800 |
| Cc1noc(C)c1-c1cc(S(=O)(=O)NC2CC2)c2ccc(N3CCNCC3)nc2c1 [Compound 80, N-cyclopropyl-7-(3,5-dimethylisoxazol-4-yl)-2-(piperazin-1-yl)quinoline-5-sulfonamide] | 1390 | 1730 |
| Cc1noc(C)c1-c1cc(S(=O)(=O)NC2CCCC2)c2cc(C(N)=O)c(=O)[nH]c2c1 [Compound 69, 5-(N-cyclopentylsulfamoyl) -7-(3,5-dimethylisoxazol-4-yl)-2-oxo-1,2-dihydroquinoline-3-carboxamide] | 1190 | 7270 |
| Cc1noc(C)c1-c1cc(S(=O)(=O)NC2CCCC2)c2ccc(C3CC3)nc2c1 [Compound 4, N-cyclopentyl-2-cyclopropyl-7-(3,5-dimethylisoxazol-4-yl)quinoline-5-sulfonamide] | 3500 | 1440 |
| Cc1noc(C)c1-c1cc(S(=O)(=O)NC2CCCC2)c2ncc(=O)[nH]c2c1 [Compound 87, N-cyclopentyl-7-(3,5-dimethylisoxazol-4-yl)-2-oxo-1,2-dihydroquinoxaline-5-sulfonamide] | 1340 | 2200 |
| COc1ccc2c(S(=O)(=O)NC3CCCC3)cc(-c3c(C)noc3C)cc2n1 [Compound 16, N-cyclopentyl-7-(3,5-dimethylisoxazol-4-yl)-2-methoxyquinoline-5 - sulfonamide] | 6300 | 3370 |
| Cc1noc(C)c1-c1cc(S(=O)(=O)N[C@H]2C[C@@H](NC(=O)OC(C)(C)C)C2)c2cccnc2c1 [Compound 25, tert-butyl ((1s,3s)-3-(7-(3,5-dimethylisoxazol-4-yl)quinoline-5-sulfonamido)cyclobutyl)carbamate] | > 20000 | 16200 |
| Cc1noc(C)c1-c1cc(S(=O)(=O)N[C@@H]2CCC[C@H](O)C2)c2cccnc2c1 [Compound 20, 7-(3,5-dimethylisoxazol-4-yl)-N-((1R,3S)-3-hydroxycyclohexyl)qu inoline-5-sulfonamide] | 4790 | 5750 |
| Cc1noc(C)c1-c1cc(S(=O)(=O)N[C@@H]2CCC[C@H]2O)c2cccnc2c1 [Compound 26, 7-(3,5-dimethylisoxazol-4-yl)-N-((1R,2R)-2-hydroxycyclopentyl)q uinoline-5-sulfonamide] | 3550 | 4090 |
| CC(=O)N[C@H]1CCC[C@H]1NS(=O)(=O)c1cc(-c2c(C)noc2C)cc2ncccc12 [Compound 51, N-((1S,2R)-2-(7-(3,5-dimethylisoxazol-4-yl)quinoline-5-sulfonamido)cyclopentyl)acetamide] | 6450 | 7620 |
| Cc1noc(C)c1-c1cc(S(=O)(=O)N[C@@H](CC(C)(C)C)C(=O)N2CCNCC2)c2cccnc2c1 [Compound 81, (S)-N-(4,4-dimethyl-1-oxo-1-(piperazin-1-yl)pentan-2-yl)-7-(3,5-dimethylisoxazol-4-yl)quinoline-5-sulfonamide] | > 20000 | 13700 |
| Cc1noc(C)c1-c1cc(S(=O)(=O)NC2CC2(C)C)c2cccnc2c1 (stereo not drawn) [Compound 83] | 16600 | 16700 |

The next compounds have a lower Kd (BRD4 domain 2) than those just listed; values first:

| Kd (BRD4 domain 2) [nM] | Kd (BRD4 domain 1) [nM] | Structure (SMILES) |
| --- | --- | --- |
| 433 | 467 | Cc1noc(C)c1-c1cc(S(=O)(=O)NC2CCCC2)c2cc(NC3COC3)c(=O)[nH]c2c1 [Compound 96, N-cyclopentyl-7-(3,5-dimethylisoxazol-4-yl)-3-(oxetan-3-ylamino)-2-oxo-1,2-dihydroquinoline-5-sulfonamide] |
| 757 | 2090 | Cc1noc(C)c1-c1cc(S(=O)(=O)NC2CCCC2)c2cc(-c3ncccn3)c(=O)[nH]c2c1 [Compound 37, N-cyclopentyl-7-(3,5-dimethylisoxazol-4-yl)-2-oxo-3-(pyrimidin-2-yl)-1,2-dihydroquinoline-5-sulfonamide] |
| 607 | 1350 | Cc1noc(C)c1-c1cc(S(=O)(=O)NC2CCCC2)c2cc(NCC(F)F)c(=O)[nH]c2c1 [Compound 79, N-cyclopentyl-3-((2,2-difluoroethyl)amino)-7-(3,5-dimethylisoxazol-4-yl)-2-oxo-1,2-dihydroquinoline-5-sulfonamide] |
| 569 | 743 | Cc1noc(C)c1-c1cc(S(=O)(=O)NC2CCCC2)c2cc(NCCCN)c(=O)[nH]c2c1 [Compound 94, 3-((3-aminopropyl)amino)-N-cyclopentyl-7-(3,5-dimethylisoxazol-4-yl)-2-oxo-1,2-dihydroquinoline-5-sulfonamide] |
| 726 | 1340 | Cc1noc(C)c1-c1cc(S(=O)(=O)NC2CCCC2)c2cc(N3CCOCC3)c(=O)[nH]c2c1 [Compound 55, N-cyclopentyl-7-(3,5-dimethylisoxazol-4-yl)-3-morpholino-2-oxo-1,2-dihydroquinoline-5-sulfonamide] |
| 404 | 444 | Cc1noc(C)c1-c1cc(S(=O)(=O)NC2CCCC2)c2cc(NCc3cccnc3)c(=O)[nH]c2c1 [Compound 67, N-cyclopentyl-7-(3,5-dimethylisoxazol-4-yl)-2-oxo-3-((pyridin-3-ylmethyl)amino)-1,2-dihydroquinoline-5-sulfonamide] |
| 1110 | 885 | Cc1noc(C)c1-c1cc(S(=O)(=O)NC2CCCC2)c2ccc(N)nc2c1 [Compound 17, 2-amino-N-cyclopentyl-7-(3,5-dimethylisoxazol-4-yl)quinoline-5-sulfonamide] |
| 241 | 253 | Cc1noc(C)c1-c1cc(S(=O)(=O)NC2CCCC2)c2cc(-c3cccnc3)c(=O)[nH]c2c1 [Compound 29, N-cyclopentyl-7-(3,5-dimethylisoxazol-4-yl)-2-oxo-3-(pyridin-3-yl)-1,2-dihydroquinoline-5-sulfonamide] |
| 417 | 951 | Cc1noc(C)c1-c1cc(S(=O)(=O)NC2CCCC2)c2cc(NCC(O)CO)c(=O)[nH]c2c1 (stereo not drawn) [Compound 93, N-cyclopentyl-3-((2,3-dihydroxypropyl)amino)-7-(3,5-dimethylisoxazol-4-yl)-2-oxo-1,2-dihydroquinoline-5-sulfonamide] |
| 497 | 416 | Cc1noc(C)c1-c1cc(S(=O)(=O)NC2CCCC2)c2cc(NCC3CC3)c(=O)[nH]c2c1 [Compound 76, N-cyclopentyl-3-((cyclopropylmethyl)amino)-7-(3,5-dimethylisoxazol-4-yl)-2-oxo-1,2-dihydroquinoline-5-sulfonamide] |
| 656 | 881 | Cc1noc(C)c1-c1cc(S(=O)(=O)NC2CCCC2)c2cc(NCCN3CCCC3)c(=O)[nH]c2c1 [Compound 89, N-cyclopentyl-7-(3,5-dimethylisoxazol-4-yl)-2-oxo-3-((2-(pyrrolidin-1-yl)ethyl)amino)-1,2-dihydroquinoline-5-sulfonamide] |
| 546 | 981 | Cc1noc(C)c1-c1cc(S(=O)(=O)NC2CCCC2)c2cc(N3CCN(C)CC3)c(=O)[nH]c2c1 [Compound 65, N-cyclopentyl-7-(3,5-dimethylisoxazol-4-yl)-3-(4-methylpiperazin-1-yl)-2-oxo-1,2-dihydroquinoline-5-sulfonamide] |
| 504 | 799 | Cc1noc(C)c1-c1cc(S(=O)(=O)NC2CCCC2)c2ccc(N3CCNCC3)nc2c1 [Compound 44, N-cyclopentyl-7-(3,5-dimethylisoxazol-4-yl)-2-(piperazin-1-yl)quinoline-5-sulfonamide] |
| 429 | 483 | COCCNc1cc2c(S(=O)(=O)N[C@@H]3CCC[C@H]3O)cc(-c3c(C)noc3C)cc2[nH]c1=O [Compound 85, 7-(3,5-dimethylisoxazol-4-yl)-N-((1R,2R)-2-hydroxycyclopentyl)-3-((2-methoxyethyl)amino)-2-oxo-1,2-dihydroquinoline-5-sulfonamide] |
